Assay results published in article PMC2263054, “Functional evolution of the vitamin D and pregnane X receptors” (BMC Evolutionary Biology, 2007).
Counter-ions that a name gives are not always drawn. Like-named read-outs stand apart in the source and are kept apart here.

Legend:
Type in all cases: cell-based
[1] = target: T1, Xenopus laevis VDR (Xenopus laevis, UniProt O13124); test: luciferase reporter transactivation assay in HepG2-NTCP cells, GAL4/xlVDR LBD chimera with tk-UAS-Luc
T1 sequence (O13124 90-422): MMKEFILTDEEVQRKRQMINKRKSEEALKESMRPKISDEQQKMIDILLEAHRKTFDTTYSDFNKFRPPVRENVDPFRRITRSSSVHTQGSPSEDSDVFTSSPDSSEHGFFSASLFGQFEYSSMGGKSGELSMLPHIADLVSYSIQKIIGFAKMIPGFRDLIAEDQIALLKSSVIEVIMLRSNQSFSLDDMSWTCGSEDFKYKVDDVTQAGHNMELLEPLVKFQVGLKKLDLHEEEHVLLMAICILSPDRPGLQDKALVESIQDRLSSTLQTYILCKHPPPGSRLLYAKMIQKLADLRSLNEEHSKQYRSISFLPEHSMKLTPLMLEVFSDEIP

[2] = target: T2, Zebrafish VDR (Danio rerio, UniProt Q9PTN2); test: luciferase reporter transactivation assay in HepG2-NTCP cells, GAL4/zfVDR LBD chimera with tk-UAS-Luc
T2 sequence (Q9PTN2 121-453): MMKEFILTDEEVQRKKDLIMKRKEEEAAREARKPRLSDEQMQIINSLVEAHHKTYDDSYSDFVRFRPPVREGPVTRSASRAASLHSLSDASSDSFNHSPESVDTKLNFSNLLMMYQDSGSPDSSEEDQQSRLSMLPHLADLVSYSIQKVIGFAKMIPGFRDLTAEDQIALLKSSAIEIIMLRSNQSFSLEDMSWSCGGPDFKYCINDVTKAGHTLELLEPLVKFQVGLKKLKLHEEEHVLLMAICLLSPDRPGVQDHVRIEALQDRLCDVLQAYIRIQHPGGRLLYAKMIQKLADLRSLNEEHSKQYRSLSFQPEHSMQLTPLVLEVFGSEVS

[3] = target: T3, Sea lamprey VDR (Petromyzon marinus, UniProt Q7ZZY9)
T3 sequence (Q7ZZY9 92-406): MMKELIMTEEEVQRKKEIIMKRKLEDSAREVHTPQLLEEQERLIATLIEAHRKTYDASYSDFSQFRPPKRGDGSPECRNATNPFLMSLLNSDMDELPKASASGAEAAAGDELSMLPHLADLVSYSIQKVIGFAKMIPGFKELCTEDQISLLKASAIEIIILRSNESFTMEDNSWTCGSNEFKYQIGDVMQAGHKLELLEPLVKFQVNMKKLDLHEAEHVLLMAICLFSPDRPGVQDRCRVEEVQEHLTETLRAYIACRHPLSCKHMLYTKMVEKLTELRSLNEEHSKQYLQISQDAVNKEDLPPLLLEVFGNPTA

[4] = screening for activators, at least three concentrations of each drug
[5] = screening for activators, at least three concentrations of each drug, listed as testosterone

Row | Molecule | Effect on Xenopus laevis VDR [1, 4] | Effect on zebrafish VDR [2, 4] | Effect on sea lamprey VDR [3, 4] | other results
1 | 4-Pregnen-17,20b-diol-3-one sulfate | No effect | No effect | No effect | 
2 | 17-Hydroxyprogesterone | No effect | No effect | No effect | 
3 | C[C@]12CC[C@@H]3c4cc(O)c(O)cc4CC[C@H]3[C@@H]1CCC2=O [2-Hydroxyestrone] | No effect | No effect | No effect | 
4 | O=C(O)CCc1cc(I)c(O)c(I)c1 [3,5-Diiodo-4-hydroxyphenylpropionic acid] | No effect | No effect | No effect | 
5 | N[C@@H](Cc1cc(I)c(O)c(I)c1)C(=O)O.O.O [3,5-Diiodo-L-tyroside dihydrate] | No effect | No effect | No effect | 
6 | C[C@@]12C=CC[C@H]1[C@@H]1CCC3=CC(=O)CC[C@]3(C)[C@H]1CC2 [4,16-Androstadien-3-one] | No effect | No effect | No effect | 
7 | CC1=C(/C=C/C(C)=C/C=C/C(C)=C/C(=O)O)C(C)(C)CCC1O (stereo not shown) [4-Hydroxretinoic acid] | No effect | No effect | No effect | 
8 | CC1=C(/C=C/C(C)=C/C=C/C(C)=C/C(=O)Nc2ccc(O)cc2)C(C)(C)CCC1 [4-Hydroxyphenylretinamide] | No effect | No effect | No effect | 
9 | COc1c(O)ccc2c1CC[C@@H]1[C@@H]2CC[C@]2(C)C(=O)CC[C@@H]12 [4-Methoxyestrone] |  |  |  | Effect on Xenopus laevis VDR [1]: No effect; Effect on zebrafish VDR [2]: No effect; Effect on sea lamprey VDR [3]: No effect
10 | C[C@]12CCC(=O)C=C1CC[C@@H]1[C@@H]2CC[C@@]2(C)[C@H]1CC[C@]2(O)C(=O)CO [4-Pregnen-17,21-diol-3,20-dione] | No effect | No effect | No effect | 
11 | CCCCCC=CCC=CCC=CCC=CCCCC(=O)O [5,8,11,14-Eicosatetranoic acid] | No effect | No effect | No effect | 
12 | C[C@@]12C=CC[C@H]1[C@@H]1CC=C3C[C@@H](O)CC[C@]3(C)[C@H]1CC2 [5,16-Androstadien-3b-ol] | No effect | No effect | No effect | 
13 | CC[C@@]1(O)CC[C@H]2[C@@H]3CC=C4C[C@@H](OS(=O)(=O)O)CC[C@]4(C)[C@H]3CC[C@@]21C [5-Pregnen-3b,17-diol 3-sulfate] | No effect | No effect | No effect | 
14 | C[C@]12CC[C@@H](O)C[C@@H]1CC[C@@H]1[C@@H]2CC[C@]2(C)[C@@H](O)CC[C@@H]12 [5a-Androstan-3a,17b-diol] | No effect | No effect | No effect | 
15 | C[C@@]12CCC[C@H]1[C@@H]1CC[C@H]3C[C@@H](O)CC[C@]3(C)[C@H]1CC2 [5a-Androstan-3b-ol] | No effect | No effect | No effect | 
16 | CC(CO)CCC[C@@H](C)[C@H]1[C@H](O)C[C@H]2[C@@H]3[C@H](O)C[C@H]4C[C@H](O)CC[C@]4(C)[C@H]3CC[C@]12C (stereo partly shown) [5a-Cholestan-3a,7a,16a,27-tetrol] | No effect | No effect | No effect | 

Row | Molecule | Effect on Xenopus laevis VDR [1, 4] | Effect on zebrafish VDR [2, 4] | Effect on sea lamprey VDR [3, 4] | other results
17 | C[C@]12CC[C@@H](O)C[C@@H]1CC[C@@H]1[C@@H]2[C@@H](O)C[C@]2(C)[C@@H](C(=O)CO)CC[C@@H]12 [5a-Pregnan-3a,11b,21-triol-20-one] | No effect | No effect | No effect | 
18 | C[C@]12CC[C@H](O)C[C@@H]1CC[C@@H]1[C@@H]2CC[C@]2(C)C(=O)CC[C@@H]12 [5a-androstan-3b-ol-17-one] | No effect | No effect | No effect | 
19 | CC(C)CCC[C@@H](C)[C@H]1CC[C@H]2[C@@H]3CC[C@H]4C[C@@H](OS(=O)(=O)O)CC[C@]4(C)[C@H]3CC[C@]12C [5a-cholestan-3b-ol sulfate] | No effect | No effect | No effect | 
20 | CC(O)C1CCC2C3CCC4CC(O)CCC4(C)C3CCC12C (stereo not shown) [5a-pregnan-3a,20a-diol] | No effect | No effect | No effect | 
21 | CC(=O)[C@H]1CC[C@H]2[C@@H]3CC[C@H]4C[C@H](O)CC[C@]4(C)[C@H]3CC[C@]12C [5a-pregnan-3a-ol-20-one] | No effect | No effect | No effect | 
22 | C[C@]12CC[C@@H](O)C[C@H]1CC[C@@H]1[C@@H]2[C@@H](O)C[C@]2(C)C(=O)CC[C@@H]12 [5b-Androstan-3a,11b-17-one] | No effect | No effect | No effect | 
23 | C[C@]12CCC(=O)C=C1CC[C@@H]1[C@@H]2CC[C@]2(C)C(=O)CC[C@@H]12 [Androstenedione] |  | No effect | No effect | 
24 | C[C@H](CCC(=O)O)[C@H]1CC[C@H]2[C@@H]3[C@H](O)C[C@@H]4C[C@H](O)CC[C@]4(C)[C@H]3C[C@H](O)[C@]12C [Cholic acid] | No effect | No effect |  | 
25 | C[C@]12CC[C@H]3[C@@H](CCC4=CC(=O)CC[C@@]43C)[C@@H]1CC[C@H]2O [Epitestosterone] | No effect | No effect |  | 
26 | C[C@]12CC[C@@H]3c4ccc(O)cc4CC[C@H]3[C@@H]1CCC2=O [Estrone] |  | No effect | No effect | 
27 | COC(C)(C)CCCC(C)C/C=C/C(C)=C/C(=O)O (stereo not shown) [Methoprene acid] |  | No effect | No effect | 
28 | CC#C[C@]1(O)CC[C@H]2[C@@H]3CCC4=CC(=O)CCC4=C3[C@@H](c3ccc(N(C)C)cc3)C[C@@]21C [Mifepristone] | No effect |  |  | Effect on sea lamprey VDR [3]: No effect
29 | C[C@]12CC[C@H]3[C@@H](CCC4=CC(=O)CC[C@@]43C)[C@@H]1CC[C@@H]2O [Testosterone] | No effect | No effect |  | Effect on Xenopus laevis VDR [1, 5]: None of these three VDRs were activated; Effect on zebrafish VDR [2, 5]: None of these three VDRs were activated
30 | CC1=C(/C=C/C(C)=C/C=C/C(C)=C/CO)C(C)(C)CCC1 [all-trans-Retinol] |  | No effect |  | 
31 | S-Farnesyl-L-cysteine methyl ester |  | No effect | No effect | 
